Results: ChEMBL document CHEMBL1151656, “Cucurbitacin B and isocucurbitacin B: cytotoxic components of Helicteres isora” (1985)

Assay: Cytotoxicity against human 9KB cells
Assay type: functional

Structure (SMILES)	ED50
CC(=O)OC(C)(C)/C=C/C(=O)[C@@](C)(O)[C@H]1[C@H](O)C[C@@]2(C)[C@@H]3CC=C4[C@@H](CC(=O)[C@@H](O)C4(C)C)[C@]3(C)C(=O)C[C@]12C [ISOCUCURBITACIN B]	7.6 ×10⁻⁵ ug/ml
CC(=O)OC(C)(C)/C=C/C(=O)[C@](C)(O)[C@H]1[C@H](O)C[C@@]2(C)[C@@H]3CC=C4[C@H](C[C@H](O)C(=O)C4(C)C)[C@]3(C)C(=O)C[C@]12C [CUCURBITACIN B]	<1 ×10⁻⁵ ug/ml
